Assay results from US7951815B2, “Substituted 1,4,8-triazaspiro [4,5]decan-2-one compounds” (Gruenenthal GmbH, priority 2004, dated 2011).
Structures can show the parent of a compound that is named as a salt. Where two headings read alike, the source gives them in different places.

Molecular target: T1, 5-HT transporter (Rattus norvegicus, UniProt P31652)
T1 construct: synaptosomes of rat brain areas are freshly isolated; from tissue; host or cells: rat brain synaptosomes (P2 fraction) from marrow and pons
Experiment: Inhibition of 5-HT uptake in rat brain synaptosomes
Format: biochemical
Details: for inhibition at 1 µM: read-out: Uptake 5-HT, % inhibition; for inhibition at 1 µM / Uptake 5-HT, rat, 1 μM, % inhibition: rat

T1 sequence (P31652 whole entry): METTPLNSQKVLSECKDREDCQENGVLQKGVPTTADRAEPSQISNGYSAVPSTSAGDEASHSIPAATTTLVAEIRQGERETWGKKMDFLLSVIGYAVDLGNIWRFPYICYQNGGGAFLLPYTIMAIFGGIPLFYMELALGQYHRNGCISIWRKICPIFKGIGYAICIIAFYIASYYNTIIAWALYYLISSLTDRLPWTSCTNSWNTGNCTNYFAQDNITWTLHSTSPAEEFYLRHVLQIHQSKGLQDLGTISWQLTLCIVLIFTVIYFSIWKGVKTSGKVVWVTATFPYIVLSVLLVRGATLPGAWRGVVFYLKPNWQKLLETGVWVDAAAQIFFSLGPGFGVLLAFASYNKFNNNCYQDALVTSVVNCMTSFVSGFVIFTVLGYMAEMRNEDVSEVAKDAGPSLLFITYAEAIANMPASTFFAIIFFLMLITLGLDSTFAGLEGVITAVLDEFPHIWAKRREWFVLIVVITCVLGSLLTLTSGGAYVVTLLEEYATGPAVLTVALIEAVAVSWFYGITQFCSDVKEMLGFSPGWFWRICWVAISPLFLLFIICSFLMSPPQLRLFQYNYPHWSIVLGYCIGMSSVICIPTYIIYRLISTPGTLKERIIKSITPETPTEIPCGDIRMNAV

Row | inhibition at 1 µM (Table III) [%] | SMILES | other results
1 | 75 | CCC(CC)C(=O)N1CCC2(CC1)NCC(=O)N2Cc1ccccc1C#N [Example 68, 2-[8-(2-Ethylbutyryl)-2-oxo-1,4,8-triazaspiro[4,5]dec-1-ylmethyl]benzonitrile] | 
2 | 49 | COCC(=O)N1CCC2(CC1)NC(C(C)C)C(=O)N2Cc1cccc(C#N)c1 (stereo not shown) [Example 282, 3-[3-Isopropyl-8-(2-methoxyacetyl)-2-oxo-1,4,8-triazaspiro[4,5]dec-1-ylmethyl]benzonitrile] | 
3 | 82 | Cc1cc(C(=O)N2CCC3(CC2)NCC(=O)N3Cc2ccccc2F)n(C(C)(C)C)n1 [Example 253, 8-(2-tert-Butyl-5-methyl-2H-pyrazole-3-carbonyl)-1-(2-fluorobenzyl)-1,4,8-triazaspiro[4,5]decan-2-one] | 
4 | 42 | CSc1ncccc1C(=O)N1CCC2(CC1)NC(Cc1ccccc1)C(=O)N2C (stereo not shown) [Example 143, 3-Benzyl-1-methyl-8-(2-methylsulfanylpyridin-3-carbonyl)-1,4,8-triazaspiro[4,5]decan-2-one] | 
5 | 32 | COC(=O)c1ccc(CN2C(=O)C(C(C)C)NC23CCN(C(=O)c2cccnc2SC)CC3)cc1 (stereo not shown) [Example 194, Methyl 4-[3-isopropyl-8-(2-methylsulfanylpyridin-3-carbonyl)-2-oxo-1,4,8-triazaspiro[4,5]dec-1-ylmethyl]benzoate] | 
6 | 36 | CCCCN1C(=O)C(CCSC)NC12CCN(C(=O)c1cc(OC)cc(OC)c1)CC2 (stereo not shown) [Example 229, 1-Butyl-8-(3,5-dimethoxybenzoyl)-3-(2-methylsulfanylethyl)-1,4,8-triazaspiro[4,5]decan-2-one] | 
7 | 53 | CC(C)C1NC2(CCN(C(=O)c3cccc(SC(F)F)c3)CC2)N(Cc2ccccc2)C1=O (stereo not shown) [Example 192, 1-Benzyl-8-(3-difluoromethylsulfanylbenzoyl)-3-isopropyl-1,4,8-triazaspiro[4,5]decan-2-one] | 
8 | 55 | Cc1nnsc1C(=O)N1CCC2(CC1)NC(C(C)C)C(=O)N2Cc1ccccc1 (stereo not shown) [Example 216, 1-Benzyl-3-isopropyl-8-(4-methyl[1,2,3]thiadiazole-5-carbonyl)-1,4,8-triazaspiro[4,5]decan-2-one] | 
9 | 43 | COc1cc(C(=O)N2CCC3(CC2)NCC(=O)N3Cc2cccc(C#N)c2)cc(OC)c1OC [Example 277, 3-[2-Oxo-8-(3,4,5-trimethoxybenzoyl)-1,4,8-triazaspiro[4,5]dec-1-ylmethyl]benzonitrile] | 
10 | 64 | CC(C)C1NC2(CCN(C(=O)c3cccnc3Cl)CC2)N(Cc2ccccc2)C1=O (stereo not shown) [Example 157, 1-Benzyl-8-(2-chloropyridin-3-carbonyl)-3-isopropyl-1,4,8-triazaspiro[4,5]decan-2-one] | 
11 | 49 | Cc1nc(C(F)(F)F)ccc1C(=O)N1CCC2(CC1)NC(C(C)C)C(=O)N2Cc1ccccc1 (stereo not shown) [Example 178, 1-Benzyl-3-isopropyl-8-(2-methyl-6-trifluoromethylpyridin-3-carbonyl)-1,4,8-triazaspiro[4,5]decan-2-one] | 
12 | 50 | C#CCN1C(=O)C(Cc2ccccc2)NC12CCN(C(=O)c1cc(C)on1)CC2 (stereo not shown) [Example 251, 3-Benzyl-8-(5-methylisoxazole-3-carbonyl)-1-prop-2-ynyl-1,4,8-triazaspiro[4,5]decan-2-one] | 
13 | 32 | CC(C)C1NC2(CCN(C(=O)c3ccco3)CC2)N(Cc2ccccc2)C1=O (stereo not shown) [Example 228, 1-Benzyl-8-(furan-2-carbonyl)-3-isopropyl-1,4,8-triazaspiro[4,5]decan-2-one] | 
14 | 40 | COC(=O)c1ccc(CN2C(=O)CNC23CCN(C(=O)C2CCCC2)CC3)cc1 [Example 269, Methyl 4-(8-cyclopentanecarbonyl-2-oxo-1,4,8-triazaspiro[4,5]dec-1-ylmethyl)benzoate] | 
15 | 73 | COC(=O)c1ccc(CN2C(=O)CNC23CCN(C(=O)c2cccnc2Cl)CC3)cc1 [Example 252, Methyl 4-[8-(2-chloropyridin-3-carbonyl)-2-oxo-1,4,8-triazaspiro[4,5]dec-1-ylmethyl]benzoate] | 
16 | 36 | Cc1cc(C(=O)N2CCC3(CC2)NC(Cc2ccccc2)C(=O)N3C)no1 (stereo not shown) [Example 239, 3-Benzyl-1-methyl-8-(5-methylisoxazole-3-carbonyl)-1,4,8-triazaspiro[4,5]decan-2-one] | 

More lines, now with the values behind:

Row | SMILES | inhibition at 1 µM (Table III) [%] | other results
17 | C#CCN1C(=O)C(CCSC)NC12CCN(C(=O)C1CCC1)CC2 (stereo not shown) [Example 152, 8-Cyclobutanecarbonyl-3-(2-methylsulfanylethyl)-1-prop-2-ynyl-1,4,8-triazaspiro[4,5]decan-2-one] | 56 | 
18 | CCOC(=O)CN1C(=O)C(Cc2ccccc2)NC12CCN(C(=O)C1CCC1)CC2 (stereo not shown) [Example 319, Ethyl (3-benzyl-8-cyclobutanecarbonyl-2-oxo-1,4,8-triazaspiro[4,5]dec-1-yl)acetate] | 70 | 
19 | CSCCC1NC2(CCN(C(=O)c3cccnc3Oc3ccccc3)CC2)N(Cc2ccccc2F)C1=O (stereo not shown) [Example 163, 1-(2-Fluorobenzyl)-3-(2-methylsulfanylethyl)-8-(2-phenoxypyridin-3-carbonyl)-1,4,8-triazaspiro[4,5]decan-2-one] | 71 | 
20 | C#CCN1C(=O)C(Cc2ccccc2)NC12CCN(C(=O)c1ccco1)CC2 (stereo not shown) [Example 186, 3-Benzyl-8-(furan-2-carbonyl)-1-prop-2-ynyl-1,4,8-triazaspiro[4,5]decan-2-one] | 32 | 
21 | CSCCC1NC2(CCN(C(=O)c3ccccn3)CC2)N(Cc2ccccc2F)C1=O (stereo not shown) [Example 170, 1-(2-Fluorobenzyl)-3-(2-methylsulfanylethyl)-8-(pyridin-2-carbonyl)-1,4,8-triazaspiro[4,5]decan-2-one] | 46 | 
22 | CCOC(=O)CN1C(=O)C(CCSC)NC12CCN(C(=O)CC)CC2 (stereo not shown) [Example 263, Ethyl [3-(2-methylsulfanylethyl)-2-oxo-8-propionyl-1,4,8-triazaspiro[4,5]dec-1-yl]acetate] | 50 | 
23 | CSCCC1NC2(CCN(C(=O)c3ccco3)CC2)N(Cc2ccc(F)cc2)C1=O (stereo not shown) [Example 147, 1-(4-Fluorobenzyl)-8-(furan-2-carbonyl)-3-(2-methylsulfanylethyl)-1,4,8-triazaspiro[4,5]decan-2-one] | 45 | 
24 | CC(C)=CCN1C(=O)C(C(C)C)NC12CCN(C(=O)c1ccncc1)CC2 (stereo not shown) [Example 87, 3-Isopropyl-1-(3-methylbut-2-enyl)-8-(pyridin-4-carbonyl)-1,4,8-triazaspiro[4,5]decan-2-one] | 56 | 
25 | CC(=O)OC(C(=O)N1CCC2(CC1)NCC(=O)N2Cc1cccc(C#N)c1)c1ccccc1 (stereo not shown) [Example 284, Ethyl 2-[1-(3-cyanobenzyl)-2-oxo-1,4,8-triazaspiro[4,5]dec-8-yl]-2-oxo-1-phenylacetate] |  | Uptake 5-HT, rat, 1 μM, % inhibition (Table III): 51%
26 | CC(C)=CCN1C(=O)C(C(C)C)NC12CCN(C(=O)c1c(-c3c(F)cccc3Cl)noc1C)CC2 (stereo not shown) [Example 233, 8-[3-(2-Chloro-6-fluorophenyl)-5-methylisoxazole-4-carbonyl]-3-isopropyl-1-(3-methylbut-2-enyl)-1,4,8-triazaspiro[4,5]decan-2-one] | 30 | 
27 | CC(=O)Nc1ccc(C(=O)N2CCC3(CC2)NC(CC(C)C)C(=O)N3CCCCOC(C)=O)cc1 (stereo not shown) [Example 255, Butyl 4-[8-(4-acetylaminobenzoyl)-3-isobutyl-2-oxo-1,4,8-triazaspiro[4,5]dec-1-yl]acetate] |  | Uptake 5-HT, rat, 1 μM, % inhibition (Table III): 44%
28 | C#CCN1C(=O)C(Cc2ccccc2)NC12CCN(C(=O)c1snnc1C)CC2 (stereo not shown) [Example 244, 3-Benzyl-8-(4-methyl[1,2,3]thiadiazole-5-carbonyl)-1-prop-2-ynyl-1,4,8-triazaspiro[4,5]decan-2-one] | 51 | 
29 | C=CCN1C(=O)C(CCSC)NC12CCN(C(=O)c1ccc(S(N)(=O)=O)cc1)CC2 (stereo not shown) [Example 259, 4-[1-Allyl-3-(2-methylsulfanylethyl)-2-oxo-1,4,8-triazaspiro[4,5]decan-8-carbonyl]benzolsulfonamide] |  | Uptake 5-HT, rat, 1 μM, % inhibition (Table III): 50%
30 | CCOC(=O)CN1C(=O)C(Cc2ccccc2)NC12CCN(C(=O)c1ccccc1F)CC2 (stereo not shown) [Example 315, Ethyl [3-benzyl-8-(2-fluorobenzoyl)-2-oxo-1,4,8-triazaspiro[4,5]dec-1-yl]acetate] | 61 | 
31 | CCC(CC)C(=O)N1CCC2(CC1)NC(CCSC)C(=O)N2Cc1ccccc1 (stereo not shown) [Example 33, 1-benzyl-8-(2-ethylbutyryl)-3-(2-methylsulfanylethyl)-1,4,8-triazaspiro[4,5]decan-2-one hydrochloride] |  | inhibition at 1 µM (Table II): 49%
32 | NCCc1c[nH]c2ccc(O)cc12 [Example 5-HT, reference compound] |  | Km (characteristic data of the 5-HT transporter, rat synaptosomes): 0.084 ± 0.011 µM
33 | CCCCN1C(=O)C(CCSC)NC12CCN(C(=O)C1CCCCC1)CC2 (stereo not shown) [Example 206, 1-Butyl-8-cyclohexanecarbonyl-3-(2-methylsulfanylethyl)-1,4,8-triazaspiro[4,5]decan-2-one] | 55 | 
34 | CCCCN1C(=O)C(Cc2ccccc2)NC12CCN(C(=O)c1cc(C(F)(F)F)ccc1C(F)(F)F)CC2 (stereo not shown) [Example 155, 3-Benzyl-8-(2,5-bis-trifluoromethylbenzoyl)-1-butyl-1,4,8-triazaspiro[4,5]decan-2-one] | 74 | 
35 | CCCCN1C(=O)C(CCSC)NC12CCN(C(=O)c1ccc(OC)cc1)CC2 (stereo not shown) [Example 144, 1-Butyl-8-(4-methoxybenzoyl)-3-(2-methylsulfanylethyl)-1,4,8-triazaspiro[4,5]decan-2-one] | 51 | 
36 | C#CCN1C(=O)C(CC(C)C)NC12CCN(C(=O)c1ccc(OC(F)(F)F)cc1)CC2 (stereo not shown) [Example 234, 3-Isobutyl-1-prop-2-ynyl-8-(4-trifluoromethoxybenzoyl)-1,4,8-triazaspiro[4,5]decan-2-one] | 45 | 
37 | C#CCN1C(=O)C(CCSC)NC12CCN(C(=O)CCCOc1ccccc1)CC2 (stereo not shown) [Example 222, 3-(2-Methylsulfanylethyl)-8-(4-phenoxybutyryl)-1-prop-2-ynyl-1,4,8-triazaspiro[4,5]decan-2-one] | 60 | 
